# Test results published in patent US20120009131A1, “METHOD FOR PREVENTING OR TREATING AMYLOID BETA PEPTIDE-ASSOCIATED DISEASES OR CONDITIONS, AND METHOD FOR INHIBITING FORMATION, ACCUMULATION OR AGGREGATION OF AMYLOID BETA PEPTIDES” (Sinphar Tian-Li Pharmaceutical Co., Ltd. (Hangzhou), priority 2010, published 2012).
# Marks after values point to notes of the source that are not given here.
# Tests used:
# [1] = biological target: Human Aβ1-42 (Homo sapiens, UniProt P05067); assay: Aβ1-42 oligomerization (thioflavin T fluorescence); type: biochemical; settings: 50 μg/ml, 24 hours
# Experimental: Dried Human Aβ1-42 was taken out from the refrigerator and equilibrated to room temperature. Aβ1-42 was dissolved in 1,1,1,3,3,3-Hexa-fluro-2-propanol (HFIP) to a concentration of 1 mM, and was then placed at room temperature for one hour. The Aβ1-42/HFIP solution was aliquoted by Hamilton syringe, and was then dried under a stream of nitrogen gas, followed by storing at a temperature of −20[…]. Aβ1-42 treated with HFIP was dissolved in PBS, and was vibration-incubated with treatment of each test sample at a concentration of 50 μg/ml and at 4[…] for 24 hours to prepare Aβ1-42 oligomers. The level of Aβ1-42 oligomerization was analyzed by thioflavin T fluorescence (Ex=450 nm, Em=482 nm).
# [2] = test system: extracellular Aβ1-40 accumulation in SH-SY5Y cells; assay: Effect on extracellular Aβ1-40 accumulation (Human Aβ1-40 immunoassay of the medium); type: cell-based; settings: 50 μg/ml, 24 hours, mean±SD
# Experimental: (§1) Wild-type human neuroblastoma cells (SH-SY5Y) were cultured in Eagle's Minimum essential Medium (EMEM)/Ham's F12 medium (1:1 mixture) (containing 10% FBS, 10 units/ml penicillin, 10 μg/ml Streptomycin). Wild-type mouse neuroblastoma Neuro-2a cells were cultured in minimum essential medium (MEM) (containing 10% FBS, 10 units/ml penicillin, 10 μg/ml Streptomycin).
# The medium of the wild-type human neuroblastoma SH-SY5Y cells in Example 1 were switched into chemical defined medium (EMEM/F12 medium (Cat. No. 12500-062), Hepes 5 mM, Glucose 0.6%, NaHCO3 3 mM, Glutamine 2.5 mM, Insulin 25 μg/ml, Transferin 100 μg/ml, Progestrone 20 nM, Putrescine 60 μM, Sodium selenite 30 nM, Heparin 2 μg/ml). Each well contained 1×10^5 SH-SY5Y cells in 300 μl of culture medium. Thirty minutes later, each well was treated with the test samples A-D given in Table 1 respectively at a concentration of 50 μg/ml for 24 hours. After that, the level of Aβ1-40 in the medium of each well was analyzed by Human Aβ1-40 immunoassay kits (Catalog #KHB3482 Invitrogen).
# Human neuroblastoma SH-SY5Y cells cause extracellular accumulation of Aβ. […] The results were shown in mean±standard deviation (SD) form. Significant difference between the Vehicle control group and the test sample-treated groups were indicated by *., P<0.05, *.*, P<0.01, and. ***., P<0.001.
# [3] = test system: SD rats infused intracerebroventricularly with Aβ1-42; assay: Acetylcholine and choline levels in brain cortex and hippocampus of rats; type: in vivo, rat; settings: oral
# Experimental: (§2) The rats were anesthetized for implantation of an infusion cannula into the left cerebral ventricle thereof. After sewing up the incisions, the rats were returned to their cages. FIG. 7 illustrates the experimental schedule for animal studies. The exploration behavior tests were carried out on day 7, the passive avoidance learning tests were carried out on day 8 and 9, the water maze tests were carried on day 10 to 13, and the probe tests were carried out on day 14, after the start of Aβ1-42 infusion. […] The test samples were administered orally to the rats, 1 hour before the tests (i.e., the exploration behavior tests, the passive avoidance learning tests, and the water maze tests) throughout the experimental period. […] All the test samples were prepared freshly with deionized distilled water (ddH2O) every day, and were administered orally by stomach tube.
# (§3) Significant difference between the Aβ1-42 control group and the other experimental groups were indicated by *., P<0.05, *.*, P<0.01, and. ***., P<0.001.
# (§4) After the water maze performance tests, all rats were decapitated and their brains were rapidly removed from the skull. […]
# [4] = test system: acetylcholinesterase; assay: Acetylcholinesterase activities in brain cortex and hippocampus of rats; type: in vivo, rat; settings: oral; D 2.5 and 5 mg/kg, Aricept 0.75 mg/kg
# Experimental: as §2, §3, §4
# [5] = test system: SD rats infused intracerebroventricularly with Aβ1-42; assay: Exploration behavior test in Aβ1-42-infused rats; type: in vivo, rat; settings: oral
# Experimental: as §2, §3
# [6] = test system: SD rats infused intracerebroventricularly with Aβ1-42; assay: Passive avoidance response test in Aβ1-42-infused rats; type: in vivo, rat; settings: oral
# Experimental: as §2, §3
# [7] = test system: Aβ1-42 plaques in rat brain; assay: Immunohistochemical staining for Aβ1-42 in the hippocampus section of rat's brain; type: in vivo; settings: oral
# From the text: In the following Examples 7 to 11 illustrated below, male Sprague-Dawley (SD) rats, weighed 250-300 gm, were obtained from BioLASCO Taiwan Co. Ltd. The SD rats were infused intracerebroventricularly with Aβ1-42 to cause neuronal damage, affecting their memory and learning ability, and leading to form senile plaque-like aggregates in the rat's brain, being used as an animal model of Alzheimer's disease. Alzheimer's disease animal model induced by Aβ can be referred to, for example, Nabeshima et al. (Neuroscience Letters (1994) 170: 63-66)(British Journal of Pharmacology (1999) 126: 235-244).
# The rats were anesthetized for implantation of an infusion cannula into the left cerebral ventricle thereof. After sewing up the incisions, the rats were returned to their cages. FIG. 7 illustrates the experimental schedule for animal studies. The exploration behavior tests were carried out on day 7, the passive avoidance learning tests were carried out on day 8 and 9, the water maze tests were carried on day 10 to 13, and the probe tests were carried out on day 14, after the start of Aβ1-42 infusion. The Sham group was treated with TFA solution (64.9% sterile ddH2O, 35% acetonitrile, 0.1% trifluoroacetic acid), and the other experimental groups were treated with 0.5 μl of Aβ1-42 dissolved in TFA solution per hour, corresponding to 300 pmol/12 μl of Aβ1-42 (Tocris 1428; MW: 4514.08) per day. The test samples were administered orally to the rats, 1 hour before the tests (i.e., the exploration behavior tests, the passive avoidance learning tests, and the water maze tests) throughout the experimental period. […] All the test samples were prepared freshly with deionized distilled water (ddH2O) every day, and were administered orally by stomach tube.
# All rats were sacrificed and their brains were removed, cut into slices and stained. Neurotransmitters were also tested.
# After the water maze performance tests, all rats were decapitated and their brains were rapidly removed from the skull, and then immunohistochemical staining for Aβ1-42 in the hippocampus section of their brains. […]
# [8] = test system: SD rats infused intracerebroventricularly with Aβ1-42; assay: Water maze spatial performance and probe tests in Aβ1-42-infused rats; type: in vivo, rat; settings: oral
# Experimental: as §2, §3
# [9] = test system: Aβ-degrading enzymes released by Neuro-2a cells; assay: Effect on extracellular Aβ1-40 degradation in Neuro-2a conditioned medium; type: biochemical, mouse; settings: Neuro-2a medium, 50 μg/ml, 10 ng synthetic Aβ1-40, 24 hours
# Experimental: as §1
# Mouse neuroblastoma Neuro-2a cells will release Aβ-degrading enzymes in the chemical defined medium, but will not produce detectable amount of Aβ in the medium. The Neuro 2a cells were incubated in the medium for 24 hours, and then the medium were drawn out without cells. The medium were individually treated with the test samples A-D at a concentration of 50 μg/ml and 10 ng synthetic Aβ1-40 for 24 hours, and then the effects of each test sample on promoting the enzymes in the medium were examined. The remaining Aβ1-40 amount of each well was analyzed by Human Aβ1-40 Immunoassay kits (Catalog #KHB3482 Invitrogen), expressing as percentage, as compared with the Vehicle control group.
# [10] = test system: SD rats infused intracerebroventricularly with Aβ1-42; assay: Dopamine (DA) and metabolites DOPAC and HVA levels in brain cortex and hippocampus of rats; type: in vivo, rat; settings: for DA level / DOPAC level / HVA level: mean±SD
# Experimental: as §2, §3
# After the water maze performance tests, all rats were decapitated and their brains were rapidly removed from the skull. According to Glowinski and Iversen, the brain cortex and hippocampus were separated, and then each cortex and hippocampus were weighed and were homogenized by addition of 50 mM Na-phosphate buffer (pH 7.8) for analyzing the concentrations of neurotransmitters and the levels of enzymes.
# [11] = D 2.5 and 5 mg/kg, Aricept 0.75 mg/kg
# [12] = brain hippocampus, oral 2.5 mg/kg
# [13] = brain hippocampus, oral 5 mg/kg
# Sequence of Human Aβ1-42 (P05067 672-713 limits assumed): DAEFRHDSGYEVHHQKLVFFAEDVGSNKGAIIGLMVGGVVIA
compound,measurement,setting,value
"C[C@@H]1O[C@@H](O[C@@H]2[C@@H](O)[C@H](OCCc3ccc(O)c(O)c3)O[C@H](CO[C@@H]3O[C@H](CO)[C@@H](O)[C@H](O)[C@H]3O)[C@H]2OC(=O)/C=C/c2ccc(O)c(O)c2)[C@H](O)[C@H](O)[C@H]1O [Test sample B, Echinacoside, reference compound]",activity on inhibiting Aβ1-42 oligomerization (in words),[1],possess activities on inhibiting Aβ1-42 oligomerization
"C[C@@H]1O[C@@H](O[C@@H]2[C@@H](O)[C@H](OCCc3ccc(O)c(O)c3)O[C@H](CO)[C@H]2OC(=O)/C=C/c2ccc(O)c(O)c2)[C@H](O)[C@H](O)[C@H]1O [Test sample C, Acteoside, reference compound]",reduction of the level of Aβ1-40 in the medium in comparison with the Vehicle control group,[2],about 20%
same,activity on inhibiting Aβ1-42 oligomerization (in words),[1],possess activities on inhibiting Aβ1-42 oligomerization
Isoacteoside [Test sample D],reduction of the level of Aβ1-40 in the medium in comparison with the Vehicle control group,[2],about 47.44±16.62%
same,activity on inhibiting Aβ1-42 oligomerization (in words),[1],possess activities on inhibiting Aβ1-42 oligomerization
same,inhibition of Aβ1-42 oligomerization,[1],98.93±1.70%
same,acetylcholine levels in the brain cortex and hippocampus,[3]; 5 mg/kg,particularly potent
same,acetylcholine levels in the brain cortex and hippocampus,[3]; [11],reverse the decrease in acetylcholine levels
same,acetylcholinesterase activities in the brain cortex and hippocampus,[4],reverse the increase in acetylcholinesterase activities
same,"exploratory activities, compared with Aricept 0.75 mg/kg",[5]; 5 mg/kg,shows better effects than Aricept 0.75 mg/kg
same,exploratory activities of the rats,"[5]; D 2.5 and 5 mg/kg, Aricept 0.75 mg/kg, day 7",effective in improving the exploratory activities of the rats
same,"passive avoidance response, compared with Aricept 0.75 mg/kg",[6]; 2.5 mg/kg,shows equivalent effect with Aricept 0.75 mg/kg
same,"passive avoidance response, compared with Aricept 0.75 mg/kg",[6]; 5 mg/kg,shows better effects than Aricept 0.75 mg/kg
same,passive avoidance learning impairment (step-through latency),[6]; [11],reverse the passive avoidance learning impairment
same,plaques found in the brain of the rat,[7]; 2.5 mg/kg,few plaques
same,plaques found in the brain of the rat,[7]; 5 mg/kg,almost no plaques
same,"plaques in the brain, compared with Aricept-treated rat",[7]; D 2.5 and 5 mg/kg vs Aricept 0.75 mg/kg,less than that in the brain of the rat treated with Aricept
same,"water maze spatial performance and probe test, compared with Aricept 0.75 mg/kg",[8]; 5 mg/kg,shows better effects than Aricept 0.75 mg/kg
same,deficits of the water maze spatial performance and the probe test,[8]; [11],can be improved
same,Aβ1-40 degradation (remaining Aβ1-40 amount),[9],does not accelerate Aβ degradation
same,DA level,"[10]; brain cortex, oral 2.5 mg/kg",2.67 ± 0.43
same,DOPAC level,"[10]; brain cortex, oral 2.5 mg/kg",12.53 ± 3.33
same,HVA level,"[10]; brain cortex, oral 2.5 mg/kg",2.92 ± 0.58
same,DA level,"[10]; brain cortex, oral 5 mg/kg",3.84 ± 0.47*
same,DOPAC level,"[10]; brain cortex, oral 5 mg/kg",13.80 ± 3.03
same,HVA level,"[10]; brain cortex, oral 5 mg/kg",2.74 ± 0.69
same,DA level,[10]; [12],5.41 ± 1.30***
same,DOPAC level,[10]; [12],4.98 ± 1.15
same,HVA level,[10]; [12],3.68 ± 0.46
same,DA level,[10]; [13],4.07 ± 0.59***
same,DOPAC level,[10]; [13],4.13 ± 0.45
same,HVA level,[10]; [13],3.29 ± 0.25
same,DA levels in the cortex and hippocampus (in words),"[10]; oral, D 2.5 and 5 mg/kg, Aricept 0.75 mg/kg",reverse the decrease in DA levels
